Results on 13 molecules are retold here after PubChem BioAssay (NCI).

Molecules are shown by their SMILES.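 Briefly, cells in 96-well plates were exposed to five compound concentrations for 48 h, and endpoints were estimated by linear interpolation. Here, GI50 denotes the concentration required for 50% inhibition of growth. TGI: total growth inhibition.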 A value given as a limit tells only on which side of the number the result lay.

Among the test systems are 786-0 renal; A549 NSCLC; DU-145 prostate; HCT-116 colon; HL-60(TB) leukemia; HOP-62 NSCLC; LOX IMVI melanoma; MOLT-4 leukemia; NCI/ADR-RES ovarian; UACC-62 melanoma.
Assay in all cases: NCI-60 cell line screen, 48 h

For the molecule `CC(C)(C)NCC(O)c1ccccc1Cl` (stereo not given), the GI50 in the experiment on 786-0 renal, in the experiment with A549 NSCLC, in the experiment with DU-145 prostate, with HCT-116 colon, with HL-60(TB) leukemia and in the experiment on HOP-62 NSCLC was greater than 100 µM throughout. The GI50 in the experiment with LOX IMVI melanoma, in the experiment with MOLT-4 leukemia, in the experiment on NCI/ADR-RES ovarian and in the experiment with UACC-62 melanoma was greater than 100 µM each time. For the same molecule, the TGI in the experiment on 786-0 renal, with A549 NSCLC, in the experiment on DU-145 prostate, in the experiment on HCT-116 colon, in the experiment on HL-60(TB) leukemia and in the experiment on HOP-62 NSCLC was greater than 100 µM in each case. In addition, the TGI in the experiment with LOX IMVI melanoma, with MOLT-4 leukemia, in the experiment with NCI/ADR-RES ovarian and with UACC-62 melanoma was greater than 100 µM in each case.

As to `COc1ccc(/C(=N/O)c2ccccc2C2=Nc3ccccc3C(NCc3ccccc3)O2)cc1C` (stereo not given), the TGI in the experiment with 786-0 renal, with A549 NSCLC, in the experiment on DU-145 prostate, in the experiment with HCT-116 colon, in the experiment on HL-60(TB) leukemia and with HOP-62 NSCLC was greater than 100 µM throughout. The TGI in the experiment with LOX IMVI melanoma is greater than 100 µM; with MOLT-4 leukemia, greater than 100 µM; in the experiment with NCI/ADR-RES ovarian, greater than 100 µM; in the experiment on UACC-62 melanoma, 88.7 µM.

Turning to `Cc1cc(OCc2ccc(C(F)(F)F)cc2)c2c(c1)C(=O)C=C(NCCN1CCCC1)C2=O`, the GI50 in the experiment with 786-0 renal is 1.6 µM; in the experiment with A549 NSCLC, 2.85 µM; with DU-145 prostate, 6.15 µM; in the experiment with HCT-116 colon it was 1.85 µM; in the experiment with HL-60(TB) leukemia, 1.71 µM; in the experiment on HOP-62 NSCLC, 3.44 µM. Besides, the GI50 was 1.92 µM in the experiment on LOX IMVI melanoma, 3.03 µM in the experiment with MOLT-4 leukemia, 6.04 µM with NCI/ADR-RES ovarian and 1.82 µM in the experiment with UACC-62 melanoma. The TGI is 2.99 µM in the experiment with 786-0 renal; 9.68 µM in the experiment on A549 NSCLC; 18.6 µM with DU-145 prostate; 3.9 µM with HCT-116 colon; 4.08 µM with HL-60(TB) leukemia; 13.2 µM with HOP-62 NSCLC. Besides, the TGI in the experiment with LOX IMVI melanoma came to 3.55 µM; in the experiment on MOLT-4 leukemia it was 10.1 µM; in the experiment with NCI/ADR-RES ovarian, 20.5 µM; in the experiment with UACC-62 melanoma it was 3.51 µM.

With `CC(C)[C@@H](C(=O)O[C@@H]1/C=C/C(=O)O[C@@H](C)CCC/C=C/[C@@H]2C[C@H](O)C[C@H]21)N(C)C`, the GI50 with 786-0 renal was 9.9 µM; in the experiment on A549 NSCLC, 24 µM; in the experiment on DU-145 prostate, 29.4 µM; with HCT-116 colon, 22.3 µM; with HL-60(TB) leukemia, 13.8 µM; with HOP-62 NSCLC it was 22.3 µM. For the same molecule, the GI50 with LOX IMVI melanoma was 17 µM; in the experiment on MOLT-4 leukemia, 15.9 µM; in the experiment on NCI/ADR-RES ovarian it was 24.6 µM; with UACC-62 melanoma, 21.7 µM. Further, the TGI was 52.3 µM in the experiment on 786-0 renal; greater than 100 µM with A549 NSCLC; greater than 100 µM in the experiment with DU-145 prostate; 64.4 µM with HCT-116 colon; 36 µM in the experiment on HL-60(TB) leukemia; greater than 100 µM in the experiment on HOP-62 NSCLC. In addition, the TGI was 39.9 µM with LOX IMVI melanoma, 42.8 µM in the experiment on MOLT-4 leukemia, greater than 93.6 µM with NCI/ADR-RES ovarian and greater than 72.1 µM in the experiment with UACC-62 melanoma.

On to `Oc1c(C(Nc2ccccn2)c2ccccc2)ccc2cccnc12` (stereo not given), for which the TGI in the experiment with 786-0 renal was greater than 37.2 µM; with A549 NSCLC, greater than 100 µM; with DU-145 prostate, greater than 100 µM; with HCT-116 colon it was 21.3 µM; in the experiment with HL-60(TB) leukemia, 6.17 µM; with HOP-62 NSCLC, greater than 68.3 µM. Besides, the TGI with LOX IMVI melanoma was 37.9 µM; with MOLT-4 leukemia, greater than 25.4 µM; in the experiment on NCI/ADR-RES ovarian it was 8.73 µM; with UACC-62 melanoma, 22.2 µM.

As for `CC(NNC(=S)N1CCN(c2ccccn2)CC1)c1nccc2ccccc12` (stereo not given), the TGI in the experiment on 786-0 renal worked out at 13 µM; in the experiment with A549 NSCLC, 13.2 µM; in the experiment on DU-145 prostate, 13.8 µM; in the experiment on HCT-116 colon, 9.29 µM; in the experiment on HL-60(TB) leukemia, 1.18 µM; with HOP-62 NSCLC, 15.5 µM. Also, the TGI is 11.2 µM in the experiment on LOX IMVI melanoma, 10.3 µM in the experiment on MOLT-4 leukemia, 12 µM with NCI/ADR-RES ovarian and 2.35 µM in the experiment on UACC-62 melanoma.

Take `[N-]=[N+]=C(C(=O)CN1CCCC1=O)S(=O)(=O)c1ccccc1`: the TGI with 786-0 renal, in the experiment on A549 NSCLC, with DU-145 prostate, in the experiment on HCT-116 colon, in the experiment on HL-60(TB) leukemia and in the experiment on HOP-62 NSCLC was greater than 100 µM in each case. The TGI in the experiment with LOX IMVI melanoma, in the experiment with MOLT-4 leukemia, in the experiment with NCI/ADR-RES ovarian and in the experiment on UACC-62 melanoma was greater than 100 µM in each case.

Take `COc1nn(C)cc1Nc1nccc(-c2c[nH]c3c(NC(=O)[C@@H](C)N4CCN(C)CC4)cccc23)n1`: the GI50 was 28.8 µM in the experiment with 786-0 renal; 44.3 µM with A549 NSCLC; 62.8 µM in the experiment with DU-145 prostate; 34.3 µM with HCT-116 colon; 28.9 µM in the experiment on HL-60(TB) leukemia; 23.1 µM in the experiment with HOP-62 NSCLC. Further, the GI50 in the experiment on LOX IMVI melanoma is 17.1 µM; in the experiment on MOLT-4 leukemia it was 37.8 µM; in the experiment on NCI/ADR-RES ovarian, 61.9 µM; in the experiment on UACC-62 melanoma, 40.6 µM. In addition, the TGI with 786-0 renal, in the experiment on A549 NSCLC, in the experiment on DU-145 prostate, in the experiment on HCT-116 colon, in the experiment on HL-60(TB) leukemia and with HOP-62 NSCLC was greater than 100 µM in each case. Moreover, the TGI was 36.5 µM in the experiment with LOX IMVI melanoma, greater than 100 µM in the experiment with MOLT-4 leukemia, greater than 100 µM in the experiment on NCI/ADR-RES ovarian and greater than 100 µM in the experiment on UACC-62 melanoma.

For the molecule `CC(=O)OC1CC2(C)C(=CC1C1SCCS1)CCC1C2CCC2(C)C(OC(C)=O)CCC12` (stereo not given), the TGI in the experiment on 786-0 renal, in the experiment on A549 NSCLC, in the experiment on DU-145 prostate, in the experiment on HCT-116 colon, in the experiment with HL-60(TB) leukemia and with HOP-62 NSCLC was greater than 100 µM each time. Also, the TGI with LOX IMVI melanoma, in the experiment on MOLT-4 leukemia, in the experiment with NCI/ADR-RES ovarian and in the experiment on UACC-62 melanoma was greater than 100 µM throughout.

For `O=[N+]([O-])c1c(O)c2nonc2c2nn(-c3ccccc3)nc12`, the TGI in the experiment with 786-0 renal, in the experiment with A549 NSCLC, with DU-145 prostate, in the experiment with HCT-116 colon, in the experiment on HL-60(TB) leukemia and in the experiment with HOP-62 NSCLC was greater than 100 µM throughout. Moreover, the TGI in the experiment with LOX IMVI melanoma, in the experiment on MOLT-4 leukemia, with NCI/ADR-RES ovarian and in the experiment with UACC-62 melanoma was greater than 100 µM each time.

As for `c1ccc2c(N=NSc3ncnc4nc[nH]c34)c3ccccc3nc2c1`, the GI50 is 1.79 µM with 786-0 renal; 0.648 µM in the experiment on A549 NSCLC; 1.4 µM with DU-145 prostate; 0.53 µM in the experiment on HCT-116 colon; 3.12 µM in the experiment with HL-60(TB) leukemia; 1.2 µM with HOP-62 NSCLC. For the same molecule, the GI50 in the experiment with LOX IMVI melanoma was 0.643 µM; with MOLT-4 leukemia, 0.454 µM; with NCI/ADR-RES ovarian, 1.19 µM; in the experiment on UACC-62 melanoma, 1.1 µM. Besides, the TGI with 786-0 renal came to 13.8 µM; in the experiment with A549 NSCLC, 3.89 µM; with DU-145 prostate, 6.63 µM; in the experiment with HCT-116 colon, 11.6 µM; in the experiment on HL-60(TB) leukemia, 6.96 µM; in the experiment with HOP-62 NSCLC it was 5.71 µM. The TGI with LOX IMVI melanoma came out at 7.14 µM; with MOLT-4 leukemia it was 4.83 µM; in the experiment with NCI/ADR-RES ovarian it was 8.39 µM; in the experiment on UACC-62 melanoma, 2.63 µM.

Turning to `CC(=O)C1=C(C)N(Cc2ccccc2)C2(O)C=CC(=O)C3=C(O)c4ccccc4C(=O)C312` (stereo not given), the GI50 with 786-0 renal was 2.26 µM; with A549 NSCLC, 20.1 µM; in the experiment on DU-145 prostate, 4.57 µM; with HCT-116 colon it was 1.99 µM; in the experiment with HL-60(TB) leukemia, greater than 100 µM; with HOP-62 NSCLC it was 13.5 µM. Also, the GI50 in the experiment with LOX IMVI melanoma was 1.97 µM; with MOLT-4 leukemia it was 3.34 µM; with NCI/ADR-RES ovarian, 3.02 µM; in the experiment with UACC-62 melanoma, 2.64 µM. Besides, the TGI was 4.26 µM in the experiment with 786-0 renal; greater than 100 µM with A549 NSCLC; 19.7 µM in the experiment on DU-145 prostate; 3.86 µM with HCT-116 colon; greater than 100 µM in the experiment on HL-60(TB) leukemia; 34.3 µM with HOP-62 NSCLC. The TGI in the experiment on LOX IMVI melanoma was 4.39 µM; in the experiment with MOLT-4 leukemia, greater than 100 µM; in the experiment with NCI/ADR-RES ovarian, greater than 100 µM; in the experiment on UACC-62 melanoma it was 7.64 µM.

Turning to `CN1C(=O)N(C)C2C1NC(=S)N2/N=C/C=C/c1ccccc1[N+](=O)[O-]` (stereo not given), the GI50 in the experiment on 786-0 renal was 0.835 µM; in the experiment on A549 NSCLC it was 2.15 µM; with DU-145 prostate it was 3.81 µM; with HCT-116 colon, 0.634 µM; in the experiment on HL-60(TB) leukemia, 0.414 µM; in the experiment with HOP-62 NSCLC, 1.01 µM. Further, the GI50 is 0.87 µM in the experiment with LOX IMVI melanoma, 0.992 µM with MOLT-4 leukemia, 2.16 µM in the experiment on NCI/ADR-RES ovarian and 0.419 µM in the experiment with UACC-62 melanoma. In addition, the TGI was greater than 100 µM in the experiment with 786-0 renal; greater than 100 µM in the experiment on A549 NSCLC; greater than 100 µM in the experiment on DU-145 prostate; greater than 100 µM in the experiment with HCT-116 colon; 2.8 µM in the experiment on HL-60(TB) leukemia; greater than 100 µM in the experiment on HOP-62 NSCLC. In addition, the TGI in the experiment with LOX IMVI melanoma, with MOLT-4 leukemia, in the experiment with NCI/ADR-RES ovarian and with UACC-62 melanoma was greater than 100 µM in each case.
